Measured values from patent US20120058507A1, “Clonal Derivation and Cell Culture quality Control Screening Methods” (SRU Biosystems, Inc., priority 2009, published 2012).
One block for each compound: values may come before it.

Assays:
Format in all cases: cell-based
[1] = biological target: T1, M4 muscarinic receptor expressing cells (M4R) (Homo sapiens, UniProt P08173); assay: Label-free endpoint response on BIND Reader, M4R cells; conditions: for Endpoint response of M4R cells to ligand: first addition, 10uM carbachol or 50 nM ET-1, M4R cells plated alone
T1 sequence (P08173 1-479): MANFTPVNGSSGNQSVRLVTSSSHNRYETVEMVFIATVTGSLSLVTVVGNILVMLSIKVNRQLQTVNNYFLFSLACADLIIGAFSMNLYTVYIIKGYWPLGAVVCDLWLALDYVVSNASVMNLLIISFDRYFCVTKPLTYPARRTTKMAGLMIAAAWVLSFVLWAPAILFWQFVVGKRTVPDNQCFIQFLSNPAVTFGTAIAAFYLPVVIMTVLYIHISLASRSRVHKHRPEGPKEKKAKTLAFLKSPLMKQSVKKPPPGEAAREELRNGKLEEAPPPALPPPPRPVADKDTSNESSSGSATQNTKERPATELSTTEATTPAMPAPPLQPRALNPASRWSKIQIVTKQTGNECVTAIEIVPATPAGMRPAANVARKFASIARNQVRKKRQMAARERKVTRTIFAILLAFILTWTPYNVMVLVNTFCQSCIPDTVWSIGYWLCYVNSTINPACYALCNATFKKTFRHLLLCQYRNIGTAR
Procedure: (§1) The response of the two or more cell types to the stimuli or test reagent can be also detected by a BIND® READER (colorimetric resonant reflectance biosensor system). For example, Endothelin receptor expressing cells (ETaR) and M4 muscarinic receptor expressing cells (M4R) were plated on CA2 cellular matrix-coated colorimetric resonant reflectance biosensor plates in starvation media. The cells were pre-treated with antagonists (either atropine to inhibit M4 or BMS to inhibit ETaR) for 30 min. […] Data are referenced to buffer controls.
(§2) The ETaR cells and M4R cells were then treated with a second ligand.

[2] = biological target: T2, Endothelin receptor expressing cells (ETaR) (Homo sapiens, UniProt P25101); assay: Label-free endpoint response on BIND Reader, ETaR cells; conditions: first addition; 10uM carbachol or 50 nM ET-1; ETaR cells plated alone
T2 sequence (P25101 21-427): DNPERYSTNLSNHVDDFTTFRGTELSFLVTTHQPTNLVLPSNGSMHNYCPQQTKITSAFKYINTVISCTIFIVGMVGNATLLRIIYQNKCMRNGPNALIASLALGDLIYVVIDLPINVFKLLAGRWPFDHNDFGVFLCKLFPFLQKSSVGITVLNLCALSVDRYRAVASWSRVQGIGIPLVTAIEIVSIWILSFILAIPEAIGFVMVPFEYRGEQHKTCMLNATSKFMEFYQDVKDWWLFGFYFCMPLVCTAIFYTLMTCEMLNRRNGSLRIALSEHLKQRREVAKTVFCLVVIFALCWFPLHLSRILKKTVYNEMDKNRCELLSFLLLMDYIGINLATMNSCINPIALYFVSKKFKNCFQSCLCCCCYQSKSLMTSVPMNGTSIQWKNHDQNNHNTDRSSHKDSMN
Procedure: as §1, §2

[3] = biological target: cells expressing α4/β1 integrin receptors (Homo sapiens, UniProt P05556+P13612); assay: Cell attachment PWV shift on ECM ligand coated wells; conditions: for PWV shift of attached cells: immobilized on biosensor surface
Description: For example, cells expressing α4/β1 integrin receptors, which are known to bind to fibronectin ligands, but not to collagen or laminin ligands, generate a PWV shift on fibronectin coated wells that is about 8 to 10 times greater than the PWV shift observed on collagen or laminin surfaces.

rat MSC cell = assay: Rat MSC attachment to ECM-coated biosensors; conditions: ovalbumin, fibronectin, laminin or collagen biosensors
Description: In certain cases cells, such as stem cell or primary cells, have varying reactions to ligands depending upon what extracellular matrix component is present on the surface of the biosensor. This preference can be determined for each type of cell. […] The mP-M5 and mP-M4 cells show the best reaction to the ligands when they are on biosensors comprising fibronectin or collagen. […] Cells can be tested to determine the best ligand/ECM coating for attachment to the biosensor.

M5/RBL cells = assay: Label-free response of 1:1 mixed RBL and M5/RBL cells on BIND SCANNER; conditions: 1:1 mixed population of RBL+M5/RBL cells
Procedure: RBL and M5/RBL cells were mixed in a 1:1 ratio and were plated in colorimetric resonant reflectance biosensor wells. The cells were allowed to attach to the biosensor and the attachment reaction was detected on a BIND® SCANNER. Acetylcholine was added to the biosensor surface. […] Approximately 50% of a 1:1 mixed population of RBL+M5/RBL cells responded to acetylcholine. The responding cells can be gated and analyzed for quantitative responses (e.g., responses to additional test reagents or stimuli) independent of non-responding population. Therefore, the presence of different types of cells on a biosensor can be detected when their response to a ligand is known.

Rat MSC cells = assay: Rat MSC movement on fibronectin-coated biosensor; conditions: attachment signal zeroed out
Procedure: Rat MSC cells were added to a biosensor coated with fibronectin. Cell attachment was detected on a colorimetric resonant reflectance biosensor at 3 hours and 16 hours. The attachment signal was zeroed out and the cells were stimulated with SDF-1α or were not stimulated. Movement of the cells can be seen in the right panels of FIG. 12. The darker spots are where the cells were prior to detection and the lighter spots are where the cells are when the reaction was detected. […] An enhanced signal can be seen on the cell edges where movement and/or cell adhesion is occurring. The enhanced signal correlates with the leading edge of the cells as they move across the biosensor as evidenced by time lapse imaging. This is consistent with extracellular matrix-integrin engagement of the cells. […] An approximately 7 to 10 fold improvement in signal to noise is observed.

CXCR4 = biological target: T3, CXCR4 (Homo sapiens, UniProt P61073); assay: Label-free response to SDF-1α on BIND READER; conditions: THP-1 cells, OEM cells, MSC cells; different concentrations
T3 construct: endogenous in cells; host or cells: THP-1 cells, 'OEM' cells, MSC cells
Description: SDF-1α binds to and activates CXCR4, a GPCR. Stem cells will move to tissues releasing gradients of SDF-1α. Damaged tissue releases elevated levels of SDF-1α resulting in increased migration of mesenchymal stem cells to sites of injury. Chemotactic factors induce significant changes in the actin cytoskeleton of cells upon receptor activation. These changes are manifested as directional movement when the chemokine is presented as a gradient. SDF-1α induces the migration of mesenchymal stem cells and osteoblast progenitor cells. Overexpression of CXCR4 results in improved MSC migration and homing to sites of vascular injury.

cells expressing α4/β1 integrin receptors, sequence (P13612 34-1032): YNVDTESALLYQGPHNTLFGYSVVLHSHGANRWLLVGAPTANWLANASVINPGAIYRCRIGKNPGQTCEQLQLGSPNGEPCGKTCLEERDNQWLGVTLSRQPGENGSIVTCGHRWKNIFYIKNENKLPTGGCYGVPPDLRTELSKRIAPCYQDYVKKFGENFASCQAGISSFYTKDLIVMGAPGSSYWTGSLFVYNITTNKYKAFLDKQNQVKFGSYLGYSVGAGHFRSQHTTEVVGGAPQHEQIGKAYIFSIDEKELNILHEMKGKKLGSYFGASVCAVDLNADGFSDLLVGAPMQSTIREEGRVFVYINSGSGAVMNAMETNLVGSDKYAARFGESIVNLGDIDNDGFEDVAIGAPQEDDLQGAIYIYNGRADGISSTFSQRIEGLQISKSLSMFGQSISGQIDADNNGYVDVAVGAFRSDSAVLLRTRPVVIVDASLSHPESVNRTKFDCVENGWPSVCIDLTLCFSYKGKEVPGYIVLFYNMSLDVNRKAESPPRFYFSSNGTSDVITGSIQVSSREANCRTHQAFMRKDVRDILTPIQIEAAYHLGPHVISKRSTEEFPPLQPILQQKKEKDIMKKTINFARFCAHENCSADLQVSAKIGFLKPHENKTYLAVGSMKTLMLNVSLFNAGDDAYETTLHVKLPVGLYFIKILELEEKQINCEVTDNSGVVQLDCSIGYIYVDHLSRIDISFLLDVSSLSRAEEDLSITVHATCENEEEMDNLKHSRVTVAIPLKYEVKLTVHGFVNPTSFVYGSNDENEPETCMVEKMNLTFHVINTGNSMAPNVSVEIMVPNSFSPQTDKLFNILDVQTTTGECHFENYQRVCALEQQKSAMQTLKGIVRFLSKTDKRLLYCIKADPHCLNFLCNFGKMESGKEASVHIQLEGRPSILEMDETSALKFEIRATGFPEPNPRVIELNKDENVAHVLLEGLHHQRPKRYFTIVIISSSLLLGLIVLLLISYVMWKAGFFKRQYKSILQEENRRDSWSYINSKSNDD
cells expressing α4/β1 integrin receptors, sequence (P05556 21-798): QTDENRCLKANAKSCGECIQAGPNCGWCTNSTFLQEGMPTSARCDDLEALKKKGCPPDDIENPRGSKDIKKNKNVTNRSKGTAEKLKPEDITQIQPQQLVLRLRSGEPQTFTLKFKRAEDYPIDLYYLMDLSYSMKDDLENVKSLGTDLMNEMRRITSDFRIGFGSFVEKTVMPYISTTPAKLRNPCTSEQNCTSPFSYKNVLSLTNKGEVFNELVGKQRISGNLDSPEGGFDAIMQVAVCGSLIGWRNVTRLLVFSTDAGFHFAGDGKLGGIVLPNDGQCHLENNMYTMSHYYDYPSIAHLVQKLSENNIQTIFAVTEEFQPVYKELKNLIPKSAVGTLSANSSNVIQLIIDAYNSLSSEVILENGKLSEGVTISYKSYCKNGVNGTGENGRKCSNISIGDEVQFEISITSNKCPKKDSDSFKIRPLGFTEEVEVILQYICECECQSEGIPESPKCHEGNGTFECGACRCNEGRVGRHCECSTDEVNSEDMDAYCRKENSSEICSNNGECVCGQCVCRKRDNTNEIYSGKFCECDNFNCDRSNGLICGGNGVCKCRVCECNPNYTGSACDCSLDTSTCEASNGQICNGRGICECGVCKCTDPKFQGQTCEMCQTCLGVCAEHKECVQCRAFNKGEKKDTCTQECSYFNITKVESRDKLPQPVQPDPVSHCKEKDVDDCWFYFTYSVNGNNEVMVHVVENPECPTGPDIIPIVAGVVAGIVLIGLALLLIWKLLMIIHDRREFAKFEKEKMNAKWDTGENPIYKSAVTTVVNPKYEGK
T3 sequence (P61073 whole entry, species assumed): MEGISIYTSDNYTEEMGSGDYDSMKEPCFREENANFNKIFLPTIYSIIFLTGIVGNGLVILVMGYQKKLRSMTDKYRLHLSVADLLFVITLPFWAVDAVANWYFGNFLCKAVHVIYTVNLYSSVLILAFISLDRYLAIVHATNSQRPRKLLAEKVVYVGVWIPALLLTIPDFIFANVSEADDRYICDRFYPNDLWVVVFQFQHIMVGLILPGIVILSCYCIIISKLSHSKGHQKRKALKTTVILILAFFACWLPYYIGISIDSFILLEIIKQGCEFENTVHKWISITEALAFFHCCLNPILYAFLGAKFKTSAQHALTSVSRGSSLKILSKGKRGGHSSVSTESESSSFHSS

Endpoint response of M4R cells to ligand [1]: respond to carbachol
Endpoint response of ETaR cells to ligand [2]: not to carbachol
Compound: C[N+](C)(C)CCOC(N)=O [carbachol]
Response of M4R cells to second ligand ([1]; second addition, after ET-1 stimulation): respond to carbachol, even after ET-1 stimulation

Compound: CN1[C@@H]2CC[C@H]1C[C@@H](OC(=O)C(CO)c1ccccc1)C2 (stereo partly drawn) [Atropine, atropine]
Inhibition of carbachol response in M4R cells ([1]; antagonist pre-treatment 30 min, then 10uM carbachol): completely inhibited

Compound: collagen
PWV shift of attached cells [3]: resembles background cell attachment signal
Cell attachment compared with other surfaces (rat MSC cell): better than the other surfaces

PWV shift relative to collagen or laminin surfaces ([3]; coated wells): 8 to 10 times
Compound: fibronectin

Compound: CC(=O)OCC[N+](C)(C)C [acetylcholine]
Fraction of mixed cell population responding (M5/RBL cells): Approximately 50%

Compound: ET-1: ligand to which Endothelin receptor expressing cells (ETaR) respond
Endpoint response of M4R cells to ligand [1]: not to ET-1

Compound: laminin
PWV shift of attached cells [3]: resembles background cell attachment signal

Label-free cell response (CXCR4): rapid and robust response
Compound: SDF-1α
Cell movement and morphology after stimulation (Rat MSC cells): movement of the cells is seen along with a spreading out of the cells
